According to article PMC4191898 (Bioorganic & medicinal chemistry letters, 2014):

Test system: DU-145 cells
Assay: antiproliferative activity against DU-145 cells
Type: cell-based, human
Details: for GI50: means of three experiments ± standard deviation, Inactive = <20% DU-145 growth inhibition at 50 μM

GI50 values (range in words)	GI50	SMILES	antiproliferative activity (in words)
submicromolar range	–	O=C(NCc1ccccc1)N1CCC(c2nc(Cc3ccccc3)no2)CC1 [Compound 11b]	–
–	Inactive	COC(=O)CNC(=O)N1CCC(c2nc(-c3ccc(F)cc3)no2)CC1 [Compound 8e]	no activity was detected
–	Inactive	O=C(N1CCC(c2nc(-c3ccc(F)cc3)no2)CC1)N1CCc2ccccc21 [Compound 8l]	–
–	–	CN(Cc1ccco1)C(=O)N1CCC(c2nc(-c3ccc(F)cc3)no2)CC1 [Compound 8a]	markedly lower
submicromolar range	–	Cc1cc(CNC(=O)N2CCC(c3nc(-c4ccc(F)cc4)no3)CC2)nn1C [Compound 8o]	–
–	–	O=C(NCc1ccsc1)N1CCC(c2nc(Cc3ccccc3)no2)C1 (centres unmarked) [Compound 15]	drastically reduced
–	Inactive	C#CCNC(=O)N1CCC(c2nc(-c3ccc(F)cc3)no2)CC1 [Compound 8k]	no activity was detected
–	Inactive	Cc1noc(C2CCN(C(=O)NCc3ccccc3)CC2)n1 [Compound 11j]	–
–	Inactive	COCCNC(=O)N1CCC(c2nc(-c3ccc(F)cc3)no2)CC1 [Compound 8r]	–
–	–	O=C(NCc1ccsc1)N1CCCC(c2nc(Cc3ccccc3)no2)C1 (centres unmarked) [Compound 13]	completely eliminated
–	Inactive	CCCCNC(=O)N1CCC(c2nc(-c3ccc(F)cc3)no2)CC1 [Compound 8b]	no activity was detected
–	Inactive	O=C(NCC1CC1)N1CCC(c2nc(-c3ccc(F)cc3)no2)CC1 [Compound 8s]	–
–	–	O=C(N1CCC(c2nc(-c3ccc(F)cc3)no2)CC1)N1CCc2ccccc2C1 [Compound 8j]	markedly lower
–	Inactive	O=C(N1CCCCC1)N1CCC(c2nc(-c3ccc(F)cc3)no2)CC1 [Compound 8m]	–
submicromolar range	–	O=C(NCc1ccccc1)N1CCC(c2nc(COc3ccccc3)no2)CC1 [Compound 11d]	–
–	–	O=C(NCc1ccsc1)N1CCCC1c1nc(Cc2ccccc2)no1 (centres unmarked) [Compound 16]	completely eliminated
–	Inactive	O=C(N1CCOCC1)N1CCC(c2nc(-c3ccc(F)cc3)no2)CC1 [Compound 8n]	–
–	Inactive	O=C(N1CCC(c2nc(-c3ccc(F)cc3)no2)CC1)N1CCCc2ccccc21 [Compound 8i]	complete loss
–	–	O=C(NCc1ccsc1)N1CCCCC1c1nc(Cc2ccccc2)no1 (centres unmarked) [Compound 14]	completely eliminated
–	Inactive	CC(C)Cc1noc(C2CCN(C(=O)NCc3ccccc3)CC2)n1 [Compound 11i]	–
submicromolar range	–	O=C(NCc1ccsc1)N1CCC(c2nc(-c3ccc(F)cc3)no2)CC1 [Compound 8g]	–
–	Inactive	CC(C)(C)NC(=O)N1CCC(c2nc(-c3ccc(F)cc3)no2)CC1 [Compound 8q]	–
